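Test compounds were applied to cells in 96-well plates for 48 hours at 5 doses. At the TGI there is no net growth.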
Columns and labels:
Experiment in all cases: NCI-60 cell line screen, 48 h
[1] = tested on: SF-295 CNS
[2] = tested on: BT-549 breast
[3] = tested on: OVCAR-5 ovarian
[4] = tested on: MALME-3M melanoma
[5] = tested on: CAKI-1 renal
[6] = tested on: SNB-75 CNS
[7] = tested on: MDA-MB-435
[8] = tested on: HOP-92 NSCLC
[9] = tested on: SR leukemia
[10] = tested on: NCI/ADR-RES ovarian
[11] = tested on: EKVX NSCLC
[12] = tested on: SF-539 CNS
[13] = tested on: 786-0 renal
[14] = tested on: NCI-H460 lung
[15] = tested on: HCT-15 colon
[16] = tested on: HL-60(TB) leukemia
[17] = tested on: OVCAR-8 ovarian
[18] = tested on: U251 CNS
[19] = tested on: M14 melanoma
[20] = tested on: SN12C renal
[21] = tested on: HT29 colon
[22] = tested on: HS 578T breast
[23] = tested on: DU-145 prostate
[24] = tested on: CCRF-CEM leukemia
[25] = tested on: RXF 393 renal
[26] = tested on: IGROV1 ovarian
[27] = tested on: A549 NSCLC
[28] = tested on: SK-MEL-2 melanoma
[29] = tested on: NCI-H522 lung
[30] = tested on: MOLT-4 leukemia
[31] = tested on: MDA-MB-231 breast
[32] = tested on: NCI-H23 lung
[33] = tested on: HCT-116 colon
[34] = tested on: UO-31 renal
[35] = tested on: PC-3 prostate
[36] = tested on: SK-MEL-5 melanoma
[37] = tested on: TK-10 renal
[38] = tested on: ACHN renal
[39] = tested on: MCF7 breast
[40] = tested on: T-47D breast
[41] = tested on: SF-268 CNS
[42] = tested on: OVCAR-3 ovarian
[43] = tested on: KM12 colon
[44] = tested on: LOX IMVI melanoma
[45] = tested on: SK-MEL-28 melanoma
[46] = tested on: UACC-62 melanoma
[47] = tested on: OVCAR-4 ovarian
[48] = tested on: A498 renal
[49] = tested on: UACC-257 melanoma
[50] = tested on: COLO 205 colon
[51] = tested on: SK-OV-3 ovarian
[52] = tested on: HOP-62 NSCLC
[53] = tested on: SNB-19 CNS
[54] = tested on: SW-620 colon
[55] = tested on: K-562 leukemia

Cc1cc(C)c2c(n1)S(=O)(=O)N(CCCN1CCN(c3cccc(Cl)c3)CC1)/C(=C(\O)c1ccc(Br)cc1)C2=O
TGI [1]: 86 µM | TGI [2]: > 100 µM | TGI [3]: > 100 µM | TGI [4]: > 100 µM | TGI [5]: 49.4 µM | TGI [6]: 28.3 µM | TGI [7]: 78.8 µM | TGI [8]: 59.6 µM | TGI [9]: > 100 µM | TGI [10]: > 100 µM | TGI [11]: 57 µM | TGI [12]: 95.6 µM | TGI [13]: 38.2 µM | TGI [14]: 33.2 µM | TGI [15]: > 100 µM | TGI [16]: 45.4 µM | TGI [17]: > 100 µM | TGI [18]: > 100 µM | TGI [19]: > 100 µM | TGI [20]: 53.2 µM | TGI [21]: 98.8 µM | TGI [22]: > 100 µM | TGI [23]: > 100 µM | TGI [24]: > 100 µM | TGI [25]: 83.7 µM | TGI [26]: > 100 µM | TGI [27]: 71 µM | TGI [28]: 69.4 µM | TGI [29]: > 100 µM | TGI [30]: 60.2 µM | TGI [31]: > 100 µM | TGI [32]: > 100 µM | TGI [33]: 52 µM | TGI [34]: 48.9 µM | TGI [35]: > 100 µM | TGI [36]: 39.7 µM | TGI [37]: 60.8 µM | TGI [38]: > 100 µM | TGI [39]: > 100 µM | TGI [40]: > 100 µM | TGI [41]: > 100 µM | TGI [42]: 94.7 µM | TGI [43]: > 100 µM | TGI [44]: > 100 µM | TGI [45]: > 100 µM | TGI [46]: > 100 µM | TGI [47]: 55.8 µM | TGI [48]: > 100 µM | TGI [49]: 45.3 µM | TGI [50]: 29.8 µM | TGI [51]: > 100 µM | TGI [52]: > 100 µM | TGI [53]: 98.4 µM | TGI [54]: > 100 µM | TGI [55]: > 100 µM
